According to PMC12380353, “MK-8527 is a novel inhibitor of HIV-1 reverse transcriptase translocation with potential for extended-duration dosing” (PLOS Biology, 2025):
Where “and” joins values, the source holds several entries; their conditions need not be identical. Identical values can stand only once. Like-named read-outs stand apart in the source and are kept apart here.

Columns and labels:
HIV-1 = assay: microbe, parasite or virus in culture; settings: Human immunodeficiency virus 1, PBMC
Experimental: IC50 values were determined, and a persistence ratio was calculated for each compound. GFP, green fluorescent protein; hpi, hours post-infection; IC50, half maximal inhibitory concentration.
Assay media in each well were then evacuated and the cells resuspended using the gentle setting on the BlueWasher (BlueCatBio; Lebanon, NH, USA). Centrifugation and wash steps were repeated to ensure removal of extracellular compound.
MT4-GFP cells were infected with WT R8 virus, and PBMCs were infected with pNLG1-P2A-GFP. […] IC50 values were determined by nonlinear 4-parameter curve fitting of the data. A persistence ratio was calculated for each compound by dividing the IC50 from variable B (IC50B) by the IC50 from variable A (IC50A).

[1] = MK-8527-TP in PBMCs of rhesus monkeys after oral dosing; format: in vivo; settings: oral MK-8527 50 mg/kg
Experimental: The intracellular concentration of MK-8527-TP was determined by an LC–MS/MS assay. LC–MS/MS analysis was performed on a Acquity UPLC system (Waters Corporation; Milford, MA, USA) interfaced to an API-5500 mass spectrometer using a TurboIonSpray source (Sciex, Framingham, MA, USA) in positive ionization mode. Separation of MK-8527-TP was achieved on a BioBasic AX column (2.1 × 100 mm, 5 µm; Thermo Fisher Scientific) at 45 °C using gradient elution with mobile phases consisting of 70% water to 30% acetonitrile containing 10 mM ammonium acetate (solvent A) and 70% water to 30% acetonitrile containing 20 mM ammonium acetate, 1.5% ammonium hydroxide (NH4OH) (v/v), and 10% isopropyl alcohol (IPA) (v/v) (solvent B) at a flow rate of 0.75 mL/min. The chromatography was run as follows: The column was equilibrated with 97% A, and after sample injection 97% A was maintained for 0.10 min before concentration was increased linearly to 100% B until 3.00 min, followed by a hold at 100% B until 3.50 min. The column was then washed by alternating linear ramps from 97% A to 100% B up to 4.10 min, then returned to the initial conditions at 4.30 min and kept for an additional 1.20 min. The total run time was 5.50 min. Quantification was performed by monitoring the transitions of m/z 548.9 to 169.1 for MK-8527-TP. The method was linear across a concentration range of 1–5,000 nM in cell samples across species. The method’s lower limit of quantification was between 1 and 5 nM depending on the assay volumes of cell suspension. Analyte concentrations in cell samples across species were determined from the standard curves using linear regression with 1/×2 weighting.
PBMCs were isolated from heparinized monkey blood using the following protocol. To begin, blood samples (approximately 12–18 mL) were diluted with an equal volume of calcium- and magnesium-free PBS at pH 7.4 and gently mixed. Separation of PBMCs from the diluted blood was achieved using 50 mL AccuSpin tubes loaded with Histopaque-1077 lymphocyte separation medium (both: Thermo Fisher Scientific). Samples were centrifuged at 800g for 15 min at room temperature. The resulting plasma/buffer supernatant was removed without disturbing the PBMC interface. Next, the PBMC interface was removed with a pipette, and the cells were washed by the addition of calcium- and magnesium-free PBS (pH 7.4) to a final volume of 15 mL. PBMCs were harvested by centrifugation at 250g for 20 min at room temperature. The supernatant was decanted with care taken not to disturb the PBMC pellet, and the wash step was repeated once (250 × g for 15 min). After the second wash, the cell pellet was resuspended in 7 mL of calcium- and magnesium-free PBS, and an aliquot was removed for cell counting. PBMCs were harvested from the remaining cell suspension by centrifugation at 250g for 15 min at room temperature. The supernatant was removed, and the cell pellet was resuspended in 0.1–0.3 mL of methanol and water at a 70:30 ratio. Cell suspensions were stored at […] prior to analysis.

[2] = Uptake and phosphorylation assay in PBMCs; format: in vitro ADME, human; settings: PBMCs incubated with 0.21 nM MK-8527
Experimental: To determine the amount of MK-8527 phosphorylated forms produced after treatment of PBMCs, uptake and phosphorylation assays were performed. PBMCs were activated with 5 µg/mL PHA in RPMI 1640, 10% FBS, 100 units/mL penicillin, and 100 µg/mL streptomycin at 1.2 × 10^6 cells/mL. All incubations were in a humidified incubator at 37 °C and with 5% CO2. After 3–4 days in culture, media containing PHA were removed by centrifugation at 300g for 10 min. Cells were resuspended at 2 × 10^6 cells/mL in RPMI 1,640, 10% NHS, 100 units/mL penicillin, 100 µg/mL streptomycin, and 20 units/mL IL-2. A total of 7.5 × 10^6 to 2 × 10^7 cells were transferred to a miniature bioreactor tube. […]
The intracellular concentration of MK-8527-TP was determined by an LC–MS/MS assay. […] Quantification was performed by monitoring the transitions of m/z 548.9 to 169.1 for MK-8527-TP. […] The method’s lower limit of quantification was between 1 and 5 nM depending on the assay volumes of cell suspension. Analyte concentrations in cell samples across species were determined from the standard curves using linear regression with 1/×2 weighting.
Concentrations of intracellular phosphorylated forms were expressed in picomoles per 10^6 cells by using the molar concentration of each compound as determined by LC–MS/MS and the number of viable cells included in each 100-µL sample.

Compound | IC50 (HIV-1; 48 h, read-out: Persistence assay IC50B, PBMCs) [nM] | IC50 (HIV-1; read-out: Persistence assay IC50A, PBMCs) [nM] | Arithmetic Mean Concentration in PBMCs ([1]; 2 hr) [µM] | Concentration in PBMCs, individual subjects ([1]; 2 hr) | Arithmetic Mean Concentration in PBMCs ([1]; 24 hr) [µM] | Concentration in PBMCs, individual subjects ([1]; 24 hr) | Arithmetic Mean Concentration in PBMCs ([1]; 72 hr) [µM] | Concentration in PBMCs, individual subjects ([1]; 72 hr) | Arithmetic Mean Concentration in PBMCs ([1]; 168 hr) [µM] | Concentration in PBMCs, individual subjects ([1]; 168 hr) | Intracellular MK-8527-TP level by LC–MS/MS [2]
C#C[C@]1(CO)O[C@@H](n2ccc3c(N)nc(Cl)nc32)C[C@@H]1O [Compound 12, (2R,3S,5R)-5-(4-amino-2-chloro-7H-pyrrolo[2,3-d]pyrimidin-7-yl)-2-ethynyl-2-(hydroxymethyl)tetrahydrofuran-3-ol] | 18.1 ± 4.8 | 1.2 ± 0.2 |  |  |  |  |  |  |  |  | 
C#C[C@]1(COP(=O)(O)OP(=O)(O)OP(=O)(O)O)O[C@@H](n2ccc3c(N)nc(Cl)nc32)C[C@@H]1O [MK-8527-TP] |  |  | 11.11 | 18.77 µM and 6.47 µM and 11.31 µM | 15.02 | 15.33 µM and 20.00 µM and 11.04 µM | 2.78 | 5.67 µM and 2.28 µM and 1.67 µM | 0.66 | 1.83 µM and 0.38 µM and 0.40 µM | below the limit of quantitation
